Results reported in patent US20160264593A1 (priority 2013, published 2016).
“And” between values parts separate entries of the source, which are not always exact repeats. Equal values may be shown once. “Also recorded” adds a separate entry of the source.

Test: Pharmacokinetic study of 100 (and metabolite endothal) in SD rats, iv; plasma, liver, brain
Details: for Endothal brain concentration / Endothal liver concentration / Endothal plasma concentration / concentration at 0.25 h / concentration at 1 h / concentration at 2 h / concentration at 10 h / concentration at 24 h / concentration at 6 h: SD rats; for AUCINF / AUClast / Cmax / Tmax / concentration at 0.25 h / concentration at 1 h / concentration at 2 h / concentration at 10 h / concentration at 24 h / concentration at 6 h: rat, in vivo, iv; for concentration at 0.25 h / concentration at 1 h / concentration at 2 h / concentration at 10 h / concentration at 24 h / concentration at 6 h: Endothal liver concentration
Procedure: 100 was administrated via iv route at 0.5, 1.0 and 1.5 mg/kg into SD rats. The blood, liver and brain tissue samples were collected at predetermined times from rats.
Twelve (12) female SD rats per group were dosed by iv with 100. The rats were fasted overnight prior to dosing, with free access to water. Foods were withheld for 2 hours post-dose. Blood, liver and brain tissue samples in two animals each group were collected at each time point, within 10% of the scheduled time for each time point. Two extra animals were used for analytic method development. Blood (>0.3 mL) were collected via aorta abdominalis in anaesthetic animalsinto tubes containing heparin at 15 min, 1, 2, 6, 10 and 24 hours after iv administration. Liver and brain tissues were collected immediately after animal death. The liver and brain tissues were excised and rinsed with cold saline to avoid blood residual. Upon collection, each sample was placed on ice and the blood samples were subsequently centrifuged (4° C., 11000 rpm, 5 min) to separate plasma. The obtained plasma, liver and brain tissue samples were stored at −70° C. until LC-MS/MS analysis.
AUC0-∞ (AUC/NF) is the area under the plasma concentration-time curve with last concentration extrapolated based on the elimination rate constant.

[1] = 100 iv 0.5 mg/kg, 24 hr, individual

O=C(O)C1C2CCC(O2)C1C(=O)O (stereo not shown) [Endothal, 7-oxabicyclo[2.2.1]heptane-2,3-dicarboxylic acid]
Endothal brain concentration (100 iv 0.5 mg/kg, 0.25 hr, individual): BLQ
Endothal liver concentration (100 iv 0.5 mg/kg, 0.25 hr, individual, 0.5 mg/kg): 382 ng/g
Endothal brain concentration (100 iv 0.5 mg/kg, 0.25 hr, mean): BLQ
Endothal brain concentration (100 iv 0.5 mg/kg, 1 hr, individual): BLQ
Endothal liver concentration (100 iv 0.5 mg/kg, 1 hr, individual, 0.5 mg/kg): 131 ng/g
Endothal brain concentration (100 iv 0.5 mg/kg, 1 hr, mean): BLQ
Endothal brain concentration (100 iv 0.5 mg/kg, 2 hr, individual): BLQ
Endothal liver concentration (100 iv 0.5 mg/kg, 2 hr, individual, 0.5 mg/kg): 273 ng/g
Endothal brain concentration (100 iv 0.5 mg/kg, 2 hr, mean): BLQ
Endothal brain concentration (100 iv 0.5 mg/kg, 6 hr, individual): BLQ
Endothal plasma concentration (100 iv 0.5 mg/kg, 6 hr, individual, 0.5 mg/kg): BLQ
Endothal brain concentration (100 iv 0.5 mg/kg, 6 hr, mean): BLQ
Endothal brain concentration (100 iv 0.5 mg/kg, 10 hr, individual): BLQ
Endothal brain concentration (100 iv 0.5 mg/kg, 10 hr, mean): BLQ
Endothal brain concentration [1]: BLQ
Endothal plasma concentration [1]: BLQ
Endothal liver concentration (100 iv 0.5 mg/kg, 24 hr, individual, 0.5 mg/kg): 36.4 ng/g
Endothal brain concentration (100 iv 0.5 mg/kg, 24 hr, mean): BLQ
Endothal plasma concentration (100 iv 0.5 mg/kg, 24 hr, mean): BLQ
Endothal brain concentration (100 iv 1.0 mg/kg, 0.25 hr, individual): BLQ
Endothal liver concentration (100 iv 1.0 mg/kg, 0.25 hr, individual, 1 mg/kg): 1320 ng/g
Endothal brain concentration (100 iv 1.0 mg/kg, 0.25 hr, mean): BLQ
Endothal brain concentration (100 iv 1.0 mg/kg, 1 hr, individual): BLQ
Endothal liver concentration (100 iv 1.0 mg/kg, 1 hr, individual, 1 mg/kg): 1380 ng/g and 618 ng/g
Endothal brain concentration (100 iv 1.0 mg/kg, 1 hr, mean): BLQ
Endothal brain concentration (100 iv 1.0 mg/kg, 2 hr, individual): BLQ
Endothal liver concentration (100 iv 1.0 mg/kg, 2 hr, individual, 1 mg/kg): 1530 ng/g and 542 ng/g
Endothal brain concentration (100 iv 1.0 mg/kg, 2 hr, mean): BLQ
Endothal brain concentration (100 iv 1.0 mg/kg, 6 hr, individual): BLQ
Endothal liver concentration (100 iv 1.0 mg/kg, 6 hr, individual, 1 mg/kg): 241 ng/g
Endothal brain concentration (100 iv 1.0 mg/kg, 6 hr, mean): BLQ
Endothal brain concentration (100 iv 1.0 mg/kg, 10 hr, individual): BLQ
Endothal liver concentration (100 iv 1.0 mg/kg, 10 hr, individual, 1 mg/kg): 94.2 ng/g
Endothal brain concentration (100 iv 1.0 mg/kg, 10 hr, mean): BLQ
Endothal brain concentration (100 iv 1.0 mg/kg, 24 hr, individual): BLQ
Endothal liver concentration (100 iv 1.0 mg/kg, 24 hr, individual, 1 mg/kg): 115 ng/g
Endothal brain concentration (100 iv 1.0 mg/kg, 24 hr, mean): BLQ
Endothal brain concentration (100 iv 1.5 mg/kg, 0.25 hr, individual): BLQ
Endothal liver concentration (100 iv 1.5 mg/kg, 0.25 hr, individual, 1.5 mg/kg): 2160 ng/g
Endothal brain concentration (100 iv 1.5 mg/kg, 0.25 hr, mean): BLQ
Endothal brain concentration (100 iv 1.5 mg/kg, 1 hr, individual): BLQ
Endothal liver concentration (100 iv 1.5 mg/kg, 1 hr, individual, 1.5 mg/kg): 2976 ng/g
Endothal brain concentration (100 iv 1.5 mg/kg, 1 hr, mean): BLQ
Endothal brain concentration (100 iv 1.5 mg/kg, 2 hr, individual): BLQ
Endothal liver concentration (100 iv 1.5 mg/kg, 2 hr, individual, 1.5 mg/kg): 2226 ng/g
Endothal brain concentration (100 iv 1.5 mg/kg, 2 hr, mean): BLQ
Endothal brain concentration (100 iv 1.5 mg/kg, 6 hr, individual): BLQ
Endothal liver concentration (100 iv 1.5 mg/kg, 6 hr, individual, 1.5 mg/kg): 1326 ng/g
Endothal brain concentration (100 iv 1.5 mg/kg, 6 hr, mean): BLQ
Endothal brain concentration (100 iv 1.5 mg/kg, 10 hr, individual): BLQ
Endothal liver concentration (100 iv 1.5 mg/kg, 10 hr, individual, 1.5 mg/kg): 137 ng/g and 329 ng/g
Endothal brain concentration (100 iv 1.5 mg/kg, 10 hr, mean): BLQ
Endothal brain concentration (100 iv 1.5 mg/kg, 24 hr, individual): BLQ
Endothal liver concentration (100 iv 1.5 mg/kg, 24 hr, individual, 1.5 mg/kg): 52.1 ng/g
Endothal brain concentration (100 iv 1.5 mg/kg, 24 hr, mean): BLQ
endothal detectable in brain samples (after single iv 100 at 0.5, 1.0 and 1.5 mg/kg): not detectable; also recorded: undetectable
AUCINF (female, SD, 0.5 mg/kg): 0.828 µg·h/mL
AUClast (female, SD, 0.5 mg/kg): 0.546 µg·h/mL
Cmax (female, SD, 0.5 mg/kg): 0.577 µg/mL
Tmax (female, SD, 0.5 mg/kg): 15 min
concentration at 0.25 h (female, SD, 0.5 mg/kg, 100 iv 0.5 mg/kg, 0.25 hr, individual): 316 ng/g
concentration at 0.25 h (female, SD, 0.5 mg/kg, 100 iv 0.5 mg/kg, 0.25 hr, mean): 349 ng/g
concentration at 1 h (female, SD, 0.5 mg/kg, 100 iv 0.5 mg/kg, 1 hr, individual): 256 ng/g
concentration at 1 h (female, SD, 0.5 mg/kg, 100 iv 0.5 mg/kg, 1 hr, mean): 194 ng/g
concentration at 2 h (female, SD, 0.5 mg/kg, 100 iv 0.5 mg/kg, 2 hr, individual): 168 ng/g
concentration at 2 h (female, SD, 0.5 mg/kg, 100 iv 0.5 mg/kg, 2 hr, mean): 220 ng/g
concentration at 10 h (female, SD, 0.5 mg/kg, 100 iv 0.5 mg/kg, 10 hr, mean): 124 ng/g
concentration at 24 h (female, SD, 0.5 mg/kg, 100 iv 0.5 mg/kg, 24 hr, individual): 32 ng/g
concentration at 24 h (female, SD, 0.5 mg/kg, 100 iv 0.5 mg/kg, 24 hr, mean): 34.2 ng/g
AUCINF (female, SD, 1 mg/kg): 2.75 µg·h/mL
AUClast (female, SD, 1 mg/kg): 2.487 µg·h/mL
Tmax (female, SD, 1 mg/kg): 15 min
concentration at 0.25 h (female, SD, 1 mg/kg, 100 iv 1.0 mg/kg, 0.25 hr, individual): 768 ng/g
concentration at 0.25 h (female, SD, 1 mg/kg, 100 iv 1.0 mg/kg, 0.25 hr, mean): 1040 ng/g
concentration at 1 h (female, SD, 1 mg/kg, 100 iv 1.0 mg/kg, 1 hr, mean): 999 ng/g
concentration at 2 h (female, SD, 1 mg/kg, 100 iv 1.0 mg/kg, 2 hr, mean): 1040 ng/g
concentration at 6 h (female, SD, 1 mg/kg, 100 iv 1.0 mg/kg, 6 hr, individual): 298 ng/g
concentration at 6 h (female, SD, 1 mg/kg, 100 iv 1.0 mg/kg, 6 hr, mean): 270 ng/g
concentration at 10 h (female, SD, 1 mg/kg, 100 iv 1.0 mg/kg, 10 hr, individual): 151 ng/g
concentration at 10 h (female, SD, 1 mg/kg, 100 iv 1.0 mg/kg, 10 hr, mean): 123 ng/g
concentration at 24 h (female, SD, 1 mg/kg, 100 iv 1.0 mg/kg, 24 hr, individual): 66.6 ng/g
concentration at 24 h (female, SD, 1 mg/kg, 100 iv 1.0 mg/kg, 24 hr, mean): 90.8 ng/g
AUCINF (female, SD, 1.5 mg/kg): 4.73 µg·h/mL
AUClast (female, SD, 1.5 mg/kg): 4.476 µg·h/mL
Tmax (female, SD, 1.5 mg/kg): 15 min
concentration at 0.25 h (female, SD, 1.5 mg/kg, 100 iv 1.5 mg/kg, 0.25 hr, individual): 2300 ng/g
concentration at 0.25 h (female, SD, 1.5 mg/kg, 100 iv 1.5 mg/kg, 0.25 hr, mean): 2230 ng/g
concentration at 1 h (female, SD, 1.5 mg/kg, 100 iv 1.5 mg/kg, 1 hr, individual): 2870 ng/g
concentration at 1 h (female, SD, 1.5 mg/kg, 100 iv 1.5 mg/kg, 1 hr, mean): 2920 ng/g
concentration at 2 h (female, SD, 1.5 mg/kg, 100 iv 1.5 mg/kg, 2 hr, individual): 2950 ng/g
concentration at 2 h (female, SD, 1.5 mg/kg, 100 iv 1.5 mg/kg, 2 hr, mean): 2590 ng/g
concentration at 6 h (female, SD, 1.5 mg/kg, 100 iv 1.5 mg/kg, 6 hr, individual): 1690 ng/g
concentration at 6 h (female, SD, 1.5 mg/kg, 100 iv 1.5 mg/kg, 6 hr, mean): 1510 ng/g
concentration at 10 h (female, SD, 1.5 mg/kg, 100 iv 1.5 mg/kg, 10 hr, mean): 233 ng/g
concentration at 24 h (female, SD, 1.5 mg/kg, 100 iv 1.5 mg/kg, 24 hr, individual): 75 ng/g
concentration at 24 h (female, SD, 1.5 mg/kg, 100 iv 1.5 mg/kg, 24 hr, mean): 63.5 ng/g
Cmax (female, Sprague-Dawley, 1.5 mg/kg): 349 to 2960 ng/g
AUCINF (0.5 mg/kg): 3095 ng·h/g
AUClast (0.5 mg/kg): 2598 ng·h/g
AUCINF (1 mg/kg): 7370 ng·h/g
AUClast (1 mg/kg): 6673 ng·h/g
AUCINF (1.5 mg/kg): 18850 ng·h/g
AUClast (1.5 mg/kg): 18434 ng·h/g
